Measurements taken from publication PMC7744367 (European journal of medicinal chemistry, 2020).
Where two headings read alike, the source gives them in different places.

Experiments:
[1] = tested on: CQR Dd2 strain of P. falciparum; test: microbe, parasite or virus in culture; format: cell-based
[2] = tested on: tightly synchronized P. falciparum Dd2 cultures; test: Stage specific action assay; format: cell-based; details: 5 × EC50, synchronized Dd2, late schizont/segmenters
[3] = tested on: P. falciparum Dd2 asynchronous cultures; test: In vitro killing profile assay; format: cell-based; details: 5 × EC50, Dd2, compound washed out, growth monitored 96 h
CQS 3D7 strain = test: In vitro antiplasmodial activity, SYBR Green I-based fluorescent assay; format: cell-based, P. falciparum; details: Plasmodium falciparum, 3D7, 72 h, read-out: Antiplasmodial activity EC50 3D7
in vitro = details: human
[4] = Plasmodium falciparum, DD2, 72 h, read-out: Antiplasmodial activity EC50 Dd2, CQR Dd2 strain, 72 h incubation, at least three independent experiments

## CN1CCN(Cc2cn(-c3cc(/C=C/c4ccncc4)nc4ccc(Cl)cc34)nn2)CC1 [compound 29, (E)-6-chloro-4-(4-((4-methylpiperazin-1-yl)methyl)-1H-1,2,3-triazol-1-yl)-2-(2-(pyridin-4-yl)vinyl)quinoline]
[1]; [4]
  EC50: > 8 µM

## Clc1ccc2nc(/C=C/c3ccncc3)cc(NCCCCn3cc(CN4CCCCC4)nn3)c2c1 [compound 60, (E)-6-chloro-N-(4-(4-(piperidin-1-ylmethyl)-1H-1,2,3-triazol-1-yl)butyl)-2-(2-(pyridin-4-yl)vinyl)quinolin-4-amine]
[2]
  effect on intraerythrocytic development, compound added at 42 h: did not affect the schizont maturation and reinvasion of new merozoites
[3]
  parasite viability after 24 and 48 h exposure: complete loss of parasite viability

## O=C1c2ccccc2C(=O)N1Cc1cn(-c2cc(/C=C/c3ccncc3)nc3ccc(Cl)cc23)nn1 [compound 32, (E)-2-((1-(6-chloro-2-(2-(pyridin-4-yl)vinyl)quinolin-4-yl)-1H-1,2,3-triazol-4-yl)methyl)isoindoline-1,3-dione]
[1]; [4]
  EC50: > 8 µM

## (E)-2-((1-(4-((6-chloro-2-styrylquinolin-4-yl)amino)butyl)-1H-1,2,3-triazol-4-yl)methyl)isoindoline-1,3-dione [compound 64]
[1]; read-out: Antiplasmodial activity EC50 Dd2, CQR Dd2 strain, 72 h incubation, at least three independent experiments
  EC50: 1 ± 0.18 µM

## Clc1ccc2nc(/C=C/c3ccncc3)cc(-n3cc(CN4CCOCC4)nn3)c2c1 [compound 28, (E)-4-((1-(6-chloro-2-(2-(pyridin-4-yl)vinyl)quinolin-4-yl)-1H-1,2,3-triazol-4-yl)-methyl)morpholine]
[1]; [4]
  EC50: > 8 µM

## O=C1c2ccccc2C(=O)N1Cc1cn(CCNc2cc(/C=C/c3ccncc3)nc3ccc(Cl)cc23)nn1 [compound 57, (E)-2-((1-(2-((6-chloro-2-(2-(pyridin-4-yl)vinyl)quinolin-4-yl)amino)ethyl)-1H-1,2,3-triazol-4-yl)methyl)isoindoline-1,3-dione]
[1]; Dd2 EC50 ratio
  fold more potent than compound 32: ~8 fold

## CCN(CC)CCCC(C)Nc1ccnc2cc(Cl)ccc12 (centres unmarked) [CQ, chloroquine]
[1]; Plasmodium falciparum, DD2, 72 h, read-out: Antiplasmodial activity EC50 Dd2
  EC50: 0.17 ± 0.02 µM
CQS 3D7 strain
  EC50: 0.02 ± 0.01 µM
In vitro
  EC50 at 48 h: 10.4 ± 0.86 µM

## Clc1ccc2nc(/C=C/c3ccncc3)cc(NCCn3cc(CN4CCOCC4)nn3)c2c1 [compound 53, (E)-6-chloro-N-(2-(4-(morpholinomethyl)-1H-1,2,3-triazol-1-yl)ethyl)-2-(2-(pyridin-4-yl)vinyl)quinolin-4-amine]
[1]; Dd2 EC50 ratio
  fold improved activity over analogue 28: above 5 fold
